Converted amounts (≈) assume the structure as drawn.
Assays:
integrin α2 [1] = test: Integrin expression inhibitory action on human normal fibroblast cell line WI38; assay type: cell-based; settings: WI38, higher concentration than in Examples 1 and 2 (0.5 μg/ml and 5 μg/ml), 48 hours
Procedure: [Worded in the source for another cell line; this cell line is reported under the same test.] (§1) Human umbilical venous endothelial cells (HUVEC) of 5×10^5 in number were seeded in a 75 cm^2 cell culture bottle and then cultured using an EGM medium (Sanko Junyaku) at 37° C. in a CO2 incubator. Then, after 3 hours, the EGM medium was exchanged for the same medium including compound A, which was then cultured for further 48 hours. Next, the cells were collected and washed with a bovine serum albumin-containing phosphate buffer solution and the above buffer solution containing various anti-human integrin mouse antibodies was added to the cells and the solution containing cells was allowed to stand at 4° C. for 30 minutes. After washed, FITC connective anti-mouse IgG antibody was added to the cells, which was then allowed to stand for 30 minutes and washed again. Next, the cells were fixed and the amount of antibody connected per cell was measured as the amount of FITC by using a flow cytometer.
(§2) The integrin expression inhibitory action of the compound A on the above cells was examined in the same manner as in Example 1.

integrin α6 [2] = test: as above; assay type: cell-based; settings: WI38, higher concentration than in Examples 1 and 2 (0.5 μg/ml and 5 μg/ml), 48 hours
Procedure: [Worded in the source for another cell line; this cell line is reported under the same test.] as §1, §2

integrin α5 [3] = test: as above; assay type: cell-based; settings: WI38, higher concentration than in Examples 1 and 2 (0.5 μg/ml and 5 μg/ml), 48 hours
Procedure: [Worded in the source for another cell line; this cell line is reported under the same test.] as §1, §2

integrin β1 [4] = test: as above; assay type: cell-based; settings: WI38, higher concentration than in Examples 1 and 2 (0.5 μg/ml and 5 μg/ml), 48 hours
Procedure: [Worded in the source for another cell line; this cell line is reported under the same test.] as §1, §2

[5] = test system: human colic cancer cell strains (WiDr) chamber in C57 Black female mouse; test: Antiangiogenic effect-3 (in vivo): mouse air capsule method with WiDr chamber; settings: dose of 50 mg/kg, orally administered, once a day; measured 4 days after chamber transplantation
Procedure: The above activity was evaluated using a method obtained by improving a mouse air capsule method (Sakamoto et al., Cancer Res., 1, 55-57, 1986) in part. Specifically, a millipore ring (Nippon Millipore) was sealed using a 0.22 μm membrane filter (HAWPO, Nippon Millipore) to form a chamber. 1×10^7 human colic cancer cell strains (WiDr) which were suspended in a phosphoric acid buffer solution were sealed into the chamber. Next, an air capsule was formed on a subcutaneous site of the backside of a C57 Black female mouse of 6 to 8 weeks age and the foregoing chamber was transplanted to the air capsule. The compound A was orally administered after about 6 hours passed after the transplantation was finished and afterwards administered in sequence once a day for 3 days. The erythrocytes of the mouse that was labeled with ^51Cr was injected from the tail vein 4 days after the chamber was transplanted. […] Then, a value obtained by subtracting the amount of blood measured in the case of the chamber including no cancer cell from the above amount of blood was determined as the amount of angiogenesis. […] If the results are evaluated by T/C (%): the amount of angiogenesis of the compound-administered groups/the amount of angiogenesis of the vehicle-administered groups×100, the compound A had such an effect as T/C=53% at a dose of 50 mg/kg.

integrin α2 [6] = test: Integrin expression inhibitory action on human colonic cancer cell line HCT116-C9; assay type: cell-based
integrin α6 [7] = test: as above; assay type: cell-based
Procedure: [Worded in the source for another cell line; this cell line is reported under the same test.] as §1, §2

integrin β5 = test: Integrin expression inhibitory action on HUVEC (flow cytometer); assay type: cell-based, human; settings: 0.05 μg/ml, 48 hours
Procedure: as §1

integrin α2 [8] = test: as above; assay type: cell-based, human; settings: 0.05 μg/ml, 48 hours
Procedure: as §1

integrin α3 [9] = test: as above; assay type: cell-based, human; settings: 0.05 μg/ml, 48 hours
Procedure: as §1

integrin αv = test: as above; assay type: cell-based, human; settings: 0.05 μg/ml, 48 hours
Procedure: as §1

integrin β3 = test: as above; assay type: cell-based, human; settings: 0.05 μg/ml, 48 hours
Procedure: as §1

integrin α6 [10] = test: as above; assay type: cell-based, human; settings: 0.05 μg/ml, 48 hours
Procedure: as §1

integrin α5 [11] = test: as above; assay type: cell-based, human; settings: 0.05 μg/ml, 48 hours
Procedure: as §1

integrin β1 [12] = test: as above; assay type: cell-based, human; settings: 0.05 μg/ml, 48 hours
Procedure: as §1

integrin α5 [13] = test: Integrin expression inhibitory action on human colonic cancer cell line HCT116-C9; assay type: cell-based
integrin α4 = test: Integrin expression inhibitory action on human normal fibroblast cell line WI38; assay type: cell-based; settings: WI38, higher concentration than in Examples 1 and 2 (0.5 μg/ml and 5 μg/ml), 48 hours
[14] = test system: Human umbilical venous endothelial cells (HUVEC); test: Antiangiogenic effect-2: HUVEC tube formation between collagen layers; assay type: cell-based; settings: 96 h, HUVEC in type I collagen, 10 ng/ml EGF and 20 ng/ml bFGF, cultured 4 days, read-out: IC50, area of the formed tube
Procedure: 0.4 ml of type I collagen was added to a 24-well plate and solidified. Human umbilical venous endothelial cells (HUVEC) of 8×10^4 in number were seeded on the collagen and cultured overnight by using endothelial cells culture solution (Gibco BRL) containing 10 ng/ml EGF and 20 ng/ml bFGF. Next, the supernatant was removed and then 0.4 ml of the same collagen was overlaid. A culture solution containing 1.5 ml of the compound A was further added and the cells were cultured for 4 days. Thereafter, the area of the formed tube was measured quantitatively by image analysis.

integrin β4 = test: Integrin expression inhibitory action on human colonic cancer cell line HCT116-C9; assay type: cell-based
integrin α3 [15] = test: Integrin expression inhibitory action on human normal fibroblast cell line WI38; assay type: cell-based; settings: WI38, higher concentration than in Examples 1 and 2 (0.5 μg/ml and 5 μg/ml), 48 hours
integrin α1 = test: as above; assay type: cell-based; settings: WI38, higher concentration than in Examples 1 and 2 (0.5 μg/ml and 5 μg/ml), 48 hours
integrin α3 [16] = test: Integrin expression inhibitory action on human colonic cancer cell line HCT116-C9; assay type: cell-based
integrin β1 [17] = test: as above; assay type: cell-based
[18] = HCT116-C9, 0.05 μg/ml, 48 hours

SMILES: Cc1ccc(NS(=O)(=O)c2cccc(C#N)c2)c2[nH]cc(C#N)c12 [compound A, N-(3-Cyano-4-methyl-1H-indole-7-yl)-3-cyanobenzenesulfonamide]
- expression of integrin α2 (integrin α2 [1]): slightly inhibited
- expression of integrin α6 (integrin α6 [2]): no influence
- expression of integrin α5 (integrin α5 [3]): no influence
- expression of integrin β1 (integrin β1 [4]): no influence
- T/C (%): amount of angiogenesis of compound-administered groups / vehicle-administered groups ×100 [5]: 53%
- expression of integrin α2 (integrin α2 [6]; [18]): inhibited
- expression of integrin α2 (integrin α2 [6]; HCT116-C9, 0.5 μg/ml): inhibited
- expression of integrin α6 (integrin α6 [7]; [18]): inhibited
- expression of integrin α6 (integrin α6 [7]; HCT116-C9, 0.5 μg/ml): inhibited
- expression of integrin β5 on the surface of the cell (integrin β5): inhibited
- expression of integrin α2 on the surface of the cell (integrin α2 [8]): inhibited
- expression of integrin α3 on the surface of the cell (integrin α3 [9]): inhibited
- expression of integrin αv on the surface of the cell (integrin αv): inhibited
- expression of integrin β3 on the surface of the cell (integrin β3): inhibited
- expression of integrin α6 on the surface of the cell (integrin α6 [10]): inhibited
- expression of integrin α5 on the surface of the cell (integrin α5 [11]): inhibited
- expression of integrin β1 on the surface of the cell (integrin β1 [12]): inhibited
- expression of integrin α5 (integrin α5 [13]; [18]): inhibited
- expression of integrin α5 (integrin α5 [13]; HCT116-C9, 0.5 μg/ml): inhibited
- expression of integrin α4 (integrin α4): slightly inhibited
- IC50 [14]: 0.12 µg/mL (≈ 0.357 µM)
- expression of integrin β4 (integrin β4; [18]): inhibited
- expression of integrin β4 (integrin β4; HCT116-C9, 0.5 μg/ml): inhibited
- expression of integrin α3 (integrin α3 [15]): slightly inhibited
- expression of integrin α1 (integrin α1): no influence
- expression of integrin α3 (integrin α3 [16]; [18]): inhibited
- expression of integrin α3 (integrin α3 [16]; HCT116-C9, 0.5 μg/ml): inhibited
- expression of integrin β1 (integrin β1 [17]; [18]): inhibited
- expression of integrin β1 (integrin β1 [17]; HCT116-C9, 0.5 μg/ml): inhibited
